{"source": "patent US20250228873A1", "about": "“C25 R AND S ISOMERS OF AMINOSTEROLS AND METHODS OF MAKING AND USING THE SAME” (Enterin, Inc., priority 2022, published 2025)", "key": {"PTPN6/SHP1": {"target": "T1, PTPN6/SHP1 (Homo sapiens, UniProt P29350)", "T1 construct": "purchased Recation Biology Inc", "assay": "Phosphatase panel, DiFMUP fluorescence assay", "type": "biochemical"}, "PTPRC/CD45": {"target": "T2, PTPRC/CD45 (Homo sapiens, UniProt P08575)", "T2 construct": "purchased Recation Biology Inc", "T2 sequence (P08575 26-1306)": "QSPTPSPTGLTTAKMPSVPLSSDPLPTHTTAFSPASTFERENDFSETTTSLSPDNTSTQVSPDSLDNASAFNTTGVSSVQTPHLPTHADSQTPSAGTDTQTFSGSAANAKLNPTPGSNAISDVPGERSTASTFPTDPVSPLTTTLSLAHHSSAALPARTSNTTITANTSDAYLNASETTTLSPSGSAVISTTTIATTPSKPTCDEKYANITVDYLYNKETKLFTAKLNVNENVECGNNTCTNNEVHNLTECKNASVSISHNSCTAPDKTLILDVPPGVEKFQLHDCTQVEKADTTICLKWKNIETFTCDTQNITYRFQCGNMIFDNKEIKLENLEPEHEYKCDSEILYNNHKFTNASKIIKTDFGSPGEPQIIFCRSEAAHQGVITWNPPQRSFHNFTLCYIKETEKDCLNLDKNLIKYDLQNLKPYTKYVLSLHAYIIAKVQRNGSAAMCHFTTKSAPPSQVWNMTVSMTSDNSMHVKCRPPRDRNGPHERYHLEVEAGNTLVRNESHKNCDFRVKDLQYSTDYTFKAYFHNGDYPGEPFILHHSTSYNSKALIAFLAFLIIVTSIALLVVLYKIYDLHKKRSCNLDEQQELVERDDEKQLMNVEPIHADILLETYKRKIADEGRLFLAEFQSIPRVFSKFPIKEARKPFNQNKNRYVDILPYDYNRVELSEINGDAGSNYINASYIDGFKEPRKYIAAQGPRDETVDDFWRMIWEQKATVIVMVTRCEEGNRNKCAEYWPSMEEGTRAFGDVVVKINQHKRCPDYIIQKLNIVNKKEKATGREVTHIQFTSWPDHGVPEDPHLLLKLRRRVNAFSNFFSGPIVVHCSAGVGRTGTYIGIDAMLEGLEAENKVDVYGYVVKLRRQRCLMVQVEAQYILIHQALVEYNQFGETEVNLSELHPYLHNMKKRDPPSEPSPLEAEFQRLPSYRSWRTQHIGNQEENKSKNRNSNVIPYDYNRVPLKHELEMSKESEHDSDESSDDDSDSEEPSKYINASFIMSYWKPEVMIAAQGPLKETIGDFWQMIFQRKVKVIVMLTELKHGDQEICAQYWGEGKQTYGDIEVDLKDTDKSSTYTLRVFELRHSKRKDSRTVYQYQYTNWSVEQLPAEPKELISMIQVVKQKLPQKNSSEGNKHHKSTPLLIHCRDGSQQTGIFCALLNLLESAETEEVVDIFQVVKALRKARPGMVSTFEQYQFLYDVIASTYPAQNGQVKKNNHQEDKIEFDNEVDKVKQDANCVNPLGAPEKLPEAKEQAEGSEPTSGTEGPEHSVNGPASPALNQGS", "assay": "Phosphatase panel, DiFMUP fluorescence assay", "type": "biochemical"}, "PTPN11/SHP2": {"target": "T3, PTPN11/SHP2 (Homo sapiens, UniProt Q06124)", "T3 sequence (Q06124 1-593)": "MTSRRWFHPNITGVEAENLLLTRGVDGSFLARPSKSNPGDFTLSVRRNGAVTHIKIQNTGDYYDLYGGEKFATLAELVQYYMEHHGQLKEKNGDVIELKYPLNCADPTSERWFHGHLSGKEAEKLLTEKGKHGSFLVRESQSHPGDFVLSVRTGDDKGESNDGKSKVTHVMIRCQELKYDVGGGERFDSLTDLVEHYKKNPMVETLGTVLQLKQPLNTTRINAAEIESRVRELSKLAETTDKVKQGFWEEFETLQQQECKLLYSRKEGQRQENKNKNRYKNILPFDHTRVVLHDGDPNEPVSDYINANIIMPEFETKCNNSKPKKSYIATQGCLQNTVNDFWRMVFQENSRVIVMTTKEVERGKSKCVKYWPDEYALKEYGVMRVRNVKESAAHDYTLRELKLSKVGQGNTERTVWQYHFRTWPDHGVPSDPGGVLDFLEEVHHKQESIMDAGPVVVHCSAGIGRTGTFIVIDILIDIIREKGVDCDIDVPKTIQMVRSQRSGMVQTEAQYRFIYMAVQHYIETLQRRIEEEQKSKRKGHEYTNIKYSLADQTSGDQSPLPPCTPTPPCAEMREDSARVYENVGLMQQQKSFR", "assay": "Phosphatase panel, DiFMUP fluorescence assay", "type": "biochemical", "settings": "read-out: inhibitory activity PTPN11/SHP"}, "PTPN11/SHP2-FL(E76K)": {"target": "T4, PTPN11/SHP2-FL(E76K) (Homo sapiens, UniProt Q06124, E76K)", "T4 sequence (Q06124 2-597 isoform Q06124-1 E76K)": "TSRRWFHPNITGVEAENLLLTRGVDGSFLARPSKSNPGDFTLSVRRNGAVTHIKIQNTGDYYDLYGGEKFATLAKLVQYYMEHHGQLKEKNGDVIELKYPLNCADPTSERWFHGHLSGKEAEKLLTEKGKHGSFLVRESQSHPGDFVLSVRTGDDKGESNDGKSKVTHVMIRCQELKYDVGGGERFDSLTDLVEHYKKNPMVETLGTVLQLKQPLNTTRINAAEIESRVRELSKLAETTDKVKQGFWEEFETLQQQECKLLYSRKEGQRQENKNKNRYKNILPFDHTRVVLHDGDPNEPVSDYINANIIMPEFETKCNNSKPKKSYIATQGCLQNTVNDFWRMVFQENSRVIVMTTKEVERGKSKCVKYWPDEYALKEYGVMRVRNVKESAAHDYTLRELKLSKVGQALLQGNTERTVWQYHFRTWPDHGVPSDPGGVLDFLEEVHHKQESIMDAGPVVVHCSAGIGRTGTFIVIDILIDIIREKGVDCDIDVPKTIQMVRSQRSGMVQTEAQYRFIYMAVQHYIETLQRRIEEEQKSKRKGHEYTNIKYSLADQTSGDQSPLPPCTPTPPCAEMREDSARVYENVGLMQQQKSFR", "assay": "Phosphatase panel, DiFMUP assay, E76K mutant"}, "[1]": {"settings": "Table 19A, read-out: inhibitory activity PTPN6/SHP1"}, "[2]": {"settings": "Table 19A, read-out: inhibitory activity PTPRC/CD45"}, "[3]": {"settings": "Table 5B, read-out: Compound IC50 (M) PTPRC/CD45"}}, "note": "Like-named read-outs stand apart in the source and are kept apart here.", "data": [{"smiles": "CC(CCC[C@@H](C)[C@H]1CCC2C3C(CC[C@@]21C)[C@@]1(C)CC[C@H](NCCCNCCCCN)C[C@@H]1C[C@H]3O)C(=O)O", "note": "(single isomer, unassigned) [ENT-06]", "values": [{"measurement": "IC50", "setting": "PTPN6/SHP1; [1]", "value": "> 0.0001", "unit": "M"}, {"measurement": "IC50", "setting": "PTPRC/CD45; [2]", "value": "1.22e-06", "unit": "M"}, {"measurement": "IC50", "setting": "PTPN11/SHP2; Table 19A", "value": 3450, "unit": "nM"}, {"measurement": "IC50", "setting": "PTPN11/SHP2-FL(E76K)", "value": 345, "unit": "nM"}]}, {"smiles": "CC(C)[C@@H](CC[C@@H](C)[C@H]1CC[C@H]2[C@@H]3[C@H](O)C[C@H]4C[C@@H](NCCCNCCCCNCCCN)CC[C@]4(C)[C@H]3CC[C@]12C)OS(=O)(=O)O", "note": "(single isomer, unassigned) [ENT-02 (MSI-1436), trodusquemine]", "values": [{"measurement": "IC50", "setting": "PTPRC/CD45; [3]", "value": "4.94e-07", "unit": "M"}, {"measurement": "IC50", "setting": "PTPN11/SHP2-FL(E76K)", "value": 292, "unit": "nM"}]}, {"smiles": "CC(CCC[C@@H](C)[C@H]1CCC2C3C(CC[C@@]21C)[C@@]1(C)CC[C@H](NCCCNCCCCNCCCN)C[C@@H]1C[C@H]3O)C(=O)O", "note": "(single isomer, unassigned) [ENT-03]", "values": [{"measurement": "activity at PTPN6", "setting": "PTPN6/SHP1", "value": "inactive"}, {"measurement": "IC50", "setting": "PTPN6/SHP1; Table 5B, read-out: Compound IC50 (M) PTPN6/SHP1", "value": "> 0.0001", "unit": "M"}, {"measurement": "IC50", "setting": "PTPN6/SHP1; [1]", "value": "> 0.0001", "unit": "M"}, {"measurement": "IC50", "setting": "PTPRC/CD45; [3]", "value": "5.71e-07", "unit": "M"}, {"measurement": "IC50", "setting": "PTPRC/CD45; [2]", "value": "5.17e-07", "unit": "M"}, {"measurement": "IC50", "setting": "PTPN11/SHP2; Table 19A", "value": 5000, "unit": "nM"}, {"measurement": "IC50", "setting": "PTPN11/SHP2-FL(E76K)", "value": 294, "unit": "nM"}]}, {"smiles": "CC(CCC[C@@H](C)[C@H]1CCC2C3C(CC(O)[C@@]21C)[C@@]1(C)CC[C@H](NCCCNCCCCN)C[C@@H]1C[C@H]3O)C(=O)O", "note": "(single isomer, unassigned) [ENT-05]", "values": [{"measurement": "IC50", "setting": "PTPN6/SHP1; Table 18A, read-out: inhibitory activity PTPN6/SHP1", "value": "> 0.0001", "unit": "M"}, {"measurement": "IC50", "setting": "PTPRC/CD45; Table 18A, read-out: inhibitory activity PTPRC/CD45", "value": "> 0.0001", "unit": "M"}, {"measurement": "IC50", "setting": "PTPN11/SHP2; Table 18A", "value": 18400, "unit": "nM"}, {"measurement": "IC50", "setting": "PTPN11/SHP2-FL(E76K)", "value": 43, "unit": "nM"}]}]}
